Data taken from US20050137177A1, “Ester combination local anesthetic” (priority 2003, published 2005).

Legend:
sciatic nerve [1] = details: rat, in vivo
Description: Sections were also taken across the sciatic nerve five days after injection with local anesthetic(s) and examined for gross pathological injury.

rat peroneal nerve = details: in vivo; for peroneal total axonal counts (± SEM): 5 days
Description: Sections of rat peroneal nerve were taken for evaluation with light microscopy five days post injection with local anesthetic(s). Specifically, each nerve was sectioned and total axonal counts were taken to assess any axonal loss. Five nerves were examined for each treatment condition. The peroneal axonal counts five days after control (saline), bupivacaine, and 2.3% 2-chloroprocaine/0.17% tetracaine injections were 2063±30 (SEM), 1959±81, and 1993±45, respectively.

sciatic nerve [2] = assay: Rat sciatic nerve block, onset and offset (withdrawal to pinch, proprioception, motor strength); format: in vivo; details: for onset of sensory block (in words) / duration of full sensory block (until it started to decay) / duration of sensory block (in words): 2% 2-chloroprocaine; for onset of sensory block (in words) / duration of sensory block (in words): 0.22% or 0.5% tetracaine
Description: The onset and offset of sciatic nerve block from lidocaine, bupivacaine, tetracaine, and 2-chloroprocaine were examined in studies conducted in rats. Three different modalities were tested: (1) pain (e.g., withdrawal to pinch); (2) proprioception (e.g., the ability to place the paw squarely on the table); and (3) motor strength (e.g., the downward pressure the paw can exert on a scale). In each case, the same volume of local anesthetic agent was tested. The modality of interest was withdrawal to pinch. Each local anesthetic was tested on 5 rats of nearly identical size and age.

[3] = between 1990 and 1997; Medline database; cited from earlier work
[4] = 2.0% lidocaine, 0.17% tetracaine + 2.3% 2-chloroprocaine
[5] = withdrawal to pinch, 2.0% lidocaine, 0.5% bupivacaine, 0.17% tetracaine + 2.3% 2-chloroprocaine
[6] = 0.17% tetracaine + 2.3% 2-chloroprocaine

Structure (SMILES)	light microscopic appearance of sciatic nerve at site of injection (sciatic nerve [1])	total axonal counts compared with saline controls (in words) (rat peroneal nerve)	peroneal total axonal counts (± SEM) (rat peroneal nerve)	onset of sensory block (in words) (sciatic nerve [2]; [4])	onset of block at the first time point tested (sciatic nerve [2]; 2.0% lidocaine, 2 minutes after injection, sensory block, 5 rats) [%]	duration of full sensory block (until it started to decay) (sciatic nerve [2]; [5])	sensory block achieved (sciatic nerve [2]; 0.22% tetracaine)	sensory block achieved (sciatic nerve [2]; 0.5% tetracaine)	duration of sensory block (in words) (sciatic nerve [2]; [6])	motor blockade (sciatic nerve [2]; tetracaine studies, all animals, data not shown)	deaths (e.g., heart arrest, myocardial infarction, accidental overdose) [3] [deaths]	onset of sensory block relative to 2.0% lidocaine (sciatic nerve [2]; 0.5% bupivacaine vs 2.0% lidocaine) [times slower]	time to achieve full sensory block (onset) (sciatic nerve [2]; withdrawal to pinch, 0.5% bupivacaine, 0.17% tetracaine + 2.3% 2-chloroprocaine, same volume, 5 rats) [min]
CCN(CC)CC(=O)Nc1c(C)cccc1C [lidocaine]	marked edema and neural damage	significantly reduced	1602±167	nearly immediate	100	about 45 minutes							
CCCCNc1ccc(C(=O)OCCN(C)C)cc1 [tetracaine]				slow onset			less than 60%	less than 60%	dissipated rapidly	complete, prolonged motor blockade			
CCN(CC)CCOC(=O)c1ccc(N)cc1Cl [2-chloroprocaine]				slower than with co-administration of tetracaine		about 30 minutes			substantially shorter without co-administration of tetracaine				
CCCCN1CCCCC1C(=O)Nc1c(C)cccc1C (stereo not drawn) [bupivacaine]	indistinguishable from saline controls	no significant difference	1959±81			60 min					102	4	8
